Earlier results, collected in patent US5718912A, “Muscarine agonists” (Merck & Co., Inc., priority 1996, dated 1998).
“Also recorded” adds a separate entry of the source.

Tested on: intraocular pressure

For `CC[C@@H]1C(=O)OC[C@@H]1Cc1cncn1C` [pilocarpine], the side effects (pilocarpine therapy) is given as “miosis (decrease of pupil size); also recorded: systemic CNS effects” and the “effect on intraocular pressure” value (topical administration) is given as “lowers intraocular pressure by increasing outflow”.
